Source: patent US20080039438A1, “1B-Methylcarbapenem Derivative and Process for the Preparation Thereof” (Korea Institute of Science and Technology, priority 2004, published 2008)
Values after ≈ are worked out from the molar mass of the structure shown. Like-named read-outs stand apart in the source and are kept apart here.

Assays:
[1] = system: Pseudomonas aeruginosa 9027; test: MIC against standard strains (agar dilution); type: cell-based; conditions: standard strain Pseudomonas aeruginosa 9027, 37° C., 18 to 20 hours, read-out: Minimum Inhibitory Concentration (MIC)
[2] = system: Klebsiella aerogenes 1522E; test: MIC against standard strains (agar dilution); type: cell-based; conditions: standard strain Klebsiella aerogenes 1522E, 37° C., 18 to 20 hours, read-out: Minimum Inhibitory Concentration (MIC)
Escherichia coli 078 = test: MIC against standard strains (agar dilution); type: cell-based; conditions: standard strain Escherichia coli 078, 37° C., 18 to 20 hours, read-out: Minimum Inhibitory Concentration (MIC)
Bacteroides fragilis = test: MIC against clinically isolated anaerobic Gram-negative strains; type: cell-based; conditions: 34 strains
Salmonella typhimurium = test: MIC against standard strains (agar dilution); type: cell-based; conditions: Salmonella enterica, standard strain Salmonella typhimurium, 37° C., 18 to 20 hours, read-out: Minimum Inhibitory Concentration (MIC)
[3] = system: Bacteroides thetaiotaomicron; test: MIC against clinically isolated anaerobic Gram-negative strains; type: cell-based
[4] = system: Streptococcus pyogenes 77A; test: MIC against standard strains (agar dilution); type: cell-based; conditions: standard strain Streptococcus pyogenes 77A, 37° C., 18 to 20 hours, read-out: Minimum Inhibitory Concentration (MIC)
Enterobacter aerogenes = test: MIC against clinically isolated aerobic Gram-negative strains; type: cell-based; conditions: 14 strains; for MIC50 / MIC90: Klebsiella aerogenes
[5] = system: Pseudomonas aeruginosa 1771; test: MIC against standard strains (agar dilution); type: cell-based; conditions: standard strain Pseudomonas aeruginosa 1771, 37° C., 18 to 20 hours, read-out: Minimum Inhibitory Concentration (MIC)
Klebsiella oxytoca = test: MIC against clinically isolated aerobic Gram-negative strains; type: cell-based; conditions: 15 strains
Clostridium difficile = test: MIC against clinically isolated anaerobic Gram-positive strains; type: cell-based; conditions: 15 strains; for MIC50 / MIC90: Clostridioides difficile
Description: The in vitro antibacterial activities of the sodium 3-carboxylate compound of the present invention prepared in the above Example were measured against standard strains (Table 1), clinically isolated aerobic Gram-positive strains (Table 2), clinically isolated aerobic Gram-negative strains (Table 3), clinically isolated anaerobic Gram-positive strains (Table 4) and clinically isolated anaerobic Gram-negative strains (Table 5) using Gram-positive bacteria such as Streptococcus and Staphylococcus, Gram-negative bacteria such as Escherichia, Salmonella, Krebsiella and Enterobacter. Imipenem (IPM), meropenem (MPM) and ertapenem (EPM) were used as control groups.
The results are shown in Tables 1 to 5, and MIC50 and MIC90 represent the concentrations at which the test strain's growth was inhibited to the extents of 50% and 90%, respectively.

Klebsiella cxytoca 1082E = test: MIC against standard strains (agar dilution); type: cell-based; conditions: standard strain Klebsiella cxytoca 1082E, 37° C., 18 to 20 hours, read-out: Minimum Inhibitory Concentration (MIC)
Pseudomonas aeruginosa = test: MIC against clinically isolated aerobic Gram-negative strains; type: cell-based; conditions: 60 strains
Haemophilus influenzae = test: as above; type: cell-based; conditions: 24 strains
DHP-I = target: T1, DHP-I (Sus scrofa, UniProt P22412); type: in vitro ADME, porcine; conditions: pig, 50 μg/ml, pH 7
T1 construct: DHP-I used in the experiment was isolated from the kidney cortex of a porcine; from tissue; host or cells: porcine kidney cortex
Description: To investigate the stability of sodium 3-carboxylate compound of formula (I) prepared in Example to DHP-I secreted in the kidney, the following experiment was performed.
DHP-I used in the experiment was isolated from the kidney cortex of a porcine. The enzyme quantity at which the concentration of imipenem was reduced by one half by hydrolysis at 30° C. for 30 minutes was defined as one unit. 50 μg/ml of a test drug and a unit of DHP-I were added to 1 ml of MOPS buffer (pH 7.0), the mixture was maintained at 30° C. and OD values at 299 nm were measured after 0.5, 1, 2, 4 hours.

[6] = Pharmacokinetics test in rats; type: in vivo, Sprague-Dawley rats
Description: (§1) The pharmacokinetic behavior of the sodium 3-carboxylate compound of Example was determined as follows. Male Sprague-Dawley rats (weighing 250 g, 14-15 weeks old, 5 rats/group) and Beagle dogs (weighing 10 kg, 3 dogs/group) were maintained by feeding conventional hard food at identical conditions for more than 7 days. The test animals were fasted except water for more than 24 hours before tested. […] 500 μl of each blood sample was centrifuged at 12,000 rpm for 30 seconds, the supernatant was filtered through a 0.22 μm filter, and analyzed by HPLC/UV, and the result was listed in Table 7.

[7] = system: Enterobacter cloacae 1321E; test: MIC against standard strains (agar dilution); type: cell-based; conditions: standard strain Enterobacter cloacae 1321E, 37° C., 18 to 20 hours, read-out: Minimum Inhibitory Concentration (MIC)
Escherichia coli DC 0 = test: MIC against standard strains (agar dilution); type: cell-based; conditions: DC0, standard strain Escherichia coli DC 0, 37° C., 18 to 20 hours, read-out: Minimum Inhibitory Concentration (MIC)
Escherichia coli DC 2 = test: MIC against standard strains (agar dilution); type: cell-based
[8] = Pharmacokinetics test in dogs; type: in vivo, Beagle dogs; conditions: dog, intravenous, 5 mg/kg
Description: as §1

[9] = clinically isolated anaerobic Bacteroides thetaiotaomicron, 15 strains
[10] = male, Sprague-Dawley, supernatant of centrifuged blood, rat, intravenous, 20 mg/kg
[11] = Beagle, supernatant of centrifuged blood
[12] = Escherichia coli, DC2, read-out: Minimum Inhibitory Concentration (MIC)

T1 sequence (P22412 17-384): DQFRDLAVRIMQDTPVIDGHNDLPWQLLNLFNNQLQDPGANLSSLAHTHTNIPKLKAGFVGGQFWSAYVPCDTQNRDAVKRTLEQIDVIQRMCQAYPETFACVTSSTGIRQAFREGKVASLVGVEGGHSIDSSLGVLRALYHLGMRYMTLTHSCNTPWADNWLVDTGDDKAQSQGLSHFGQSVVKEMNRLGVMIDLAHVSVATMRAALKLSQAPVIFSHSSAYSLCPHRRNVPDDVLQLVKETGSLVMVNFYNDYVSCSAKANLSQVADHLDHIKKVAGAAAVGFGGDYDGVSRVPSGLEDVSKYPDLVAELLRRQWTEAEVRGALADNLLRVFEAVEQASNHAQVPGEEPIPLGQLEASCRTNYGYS

Row | SMILES | MIC [1] | MIC [2] | MIC (Escherichia coli 078) | MIC50 (Bacteroides fragilis) | MIC90 (Bacteroides fragilis) | MIC Range (Bacteroides fragilis) | MIC (Salmonella typhimurium) | MIC Range [3, 9] | MIC [4] | MIC Range (Enterobacter aerogenes) | MIC50 (Enterobacter aerogenes) | MIC90 (Enterobacter aerogenes) | MIC [5] | MIC50 (Klebsiella oxytoca) | MIC90 (Klebsiella oxytoca) | MIC Range (Klebsiella oxytoca) | MIC Range (Clostridium difficile) | MIC50 (Clostridium difficile) | MIC90 (Clostridium difficile) | MIC (Klebsiella cxytoca 1082E) | further results
1 | C[C@@H](O)[C@H]1C(=O)N2C(C(=O)O)=C(S[C@@H]3CN[C@H](/C=C/c4cc(C(=O)O)no4)C3)[C@H](C)[C@H]12 [Example, (1R,5S,6S,8R,3′S,5′S)-2-{5′-[(E)-2-(3-carboxylic acid or sodium carboxylate-5-isoxazolo)ethenyl]pyrrolidin-3′-ylthio}-6-(1-hydroxyethyl)-1-methylcarbapen-2-em-3-carboxylic acid] | 0.098 µg/mL | 0.049 µg/mL | 0.025 µg/mL | 0.5 µg/mL | 1 µg/mL | 0.25 to 4 µg/mL | 0.049 µg/mL | 0.5 to 8 µg/mL | 0.049 µg/mL | 0.015 to 0.12 µg/mL | 0.06 µg/mL | 0.25 µg/mL | 0.391 µg/mL | 0.03 µg/mL | 0.03 µg/mL | 0.015 to 0.25 µg/mL | 2 to 4 µg/mL | 4 µg/mL | 4 µg/mL | 0.049 µg/mL | MIC50 ([3]; clinically isolated anaerobic Bacteroides thetaiotaomicron, 15 strains, read-out: MIC50): 1 µg/mL; MIC90 ([3]; clinically isolated anaerobic Bacteroides thetaiotaomicron, 15 strains, read-out: MIC90): 4 µg/mL; MIC50 (Pseudomonas aeruginosa): 4 µg/mL; MIC90 (Pseudomonas aeruginosa): 64 µg/mL; MIC Range (Pseudomonas aeruginosa): 0.06 to 128 µg/mL; MIC50 (Haemophilus influenzae): 0.25 µg/mL; MIC90 (Haemophilus influenzae): 4 µg/mL; MIC Range (Haemophilus influenzae): 0.25 to 8 µg/mL; higher stability to DHP-I than imipenem (DHP-I): about 25 fold; higher bioavailability than meropenem ([6]; in rats, versus meropenem): about 4 fold; longer half-life than meropenem ([6]; in rats, versus meropenem): about 3 fold; clearance [6, 10]: 13.3 ± 1.5 mL/min/kg; half-life [6, 10]: 12.4 ± 4.1 min; AUC ([6]; male, Sprague-Dawley, supernatant of centrifuged blood, rat, intravenous, 20 mg/kg, read-out: AUC (converted)): 25300 ng·h/mL; MIC [7]: 0.025 µg/mL; MIC (Escherichia coli DC 0): 0.025 µg/mL; MIC (Escherichia coli DC 2; DC2, standard strain Escherichia coli DC 2, agar, 37° C., 18 to 20 hours, read-out: Minimum Inhibitory Concentration (MIC)): 0.025 µg/mL; AUC [8, 11]: 14400 ng·h/mL; half-life [8, 11]: 41 min
2 | C[C@@H](O)[C@H]1C(=O)N2C(C(=O)O)=C(SCCN=CN)C[C@H]12 [IPM, Imipenem] | 0.391 µg/mL (≈ 1.31 µM) | 0.195 µg/mL (≈ 0.651 µM) | 0.098 µg/mL (≈ 0.327 µM) | 0.25 µg/mL (≈ 0.835 µM) | 0.5 µg/mL (≈ 1.67 µM) | 0.06 to 2 µg/mL | 0.781 µg/mL (≈ 2.61 µM) | 0.12 to 16 µg/mL | < 0.002 µg/mL | 0.12 to 0.5 µg/mL | 0.12 µg/mL (≈ 0.401 µM) | 0.5 µg/mL (≈ 1.67 µM) | 0.781 µg/mL (≈ 2.61 µM) | 0.12 µg/mL (≈ 0.401 µM) | 0.5 µg/mL (≈ 1.67 µM) | 0.06 to 0.5 µg/mL | 4 to 16 µg/mL | 8 µg/mL (≈ 26.7 µM) | 8 µg/mL (≈ 26.7 µM) | 0.195 µg/mL (≈ 0.651 µM) | MIC50 ([3]; Bacteroides thetaiotaomicron): 0.5 µg/mL (≈ 1.67 µM); MIC90 ([3]; Bacteroides thetaiotaomicron): 4 µg/mL (≈ 13.4 µM); MIC50 (Pseudomonas aeruginosa): 2 µg/mL (≈ 6.68 µM); MIC90 (Pseudomonas aeruginosa): 16 µg/mL (≈ 53.4 µM); MIC Range (Pseudomonas aeruginosa): 0.5 to 128 µg/mL; MIC50 (Haemophilus influenzae): 1 µg/mL (≈ 3.34 µM); MIC90 (Haemophilus influenzae): 4 µg/mL (≈ 13.4 µM); MIC Range (Haemophilus influenzae): 0.25 to 8 µg/mL; MIC [7]: 0.098 µg/mL (≈ 0.327 µM); MIC (Escherichia coli DC 0): 0.195 µg/mL (≈ 0.651 µM); MIC (Escherichia coli DC 2; [12]): 0.195 µg/mL (≈ 0.651 µM)
3 | C[C@@H](O)[C@H]1C(=O)N2C(C(=O)O)=C(S[C@@H]3CN[C@H](C(=O)N(C)C)C3)[C@H](C)[C@H]12 [MPM, meropenem] | 0.195 µg/mL (≈ 0.509 µM) | 0.049 µg/mL (≈ 0.128 µM) | 0.025 µg/mL (≈ 0.0652 µM) | 0.12 µg/mL (≈ 0.313 µM) | 0.25 µg/mL (≈ 0.652 µM) | 0.12 to 4 µg/mL | 0.049 µg/mL (≈ 0.128 µM) | 0.25 to 2 µg/mL | 0.007 µg/mL (≈ 0.0183 µM) | 0.015 to 0.06 µg/mL | 0.03 µg/mL (≈ 0.0782 µM) | 0.06 µg/mL (≈ 0.156 µM) | 0.391 µg/mL (≈ 1.02 µM) | 0.03 µg/mL (≈ 0.0782 µM) | 0.03 µg/mL (≈ 0.0782 µM) | 0.015 to 0.06 µg/mL | 1 to 2 µg/mL | 1 µg/mL (≈ 2.61 µM) | 2 µg/mL (≈ 5.22 µM) | 0.049 µg/mL (≈ 0.128 µM) | MIC50 ([3]; Bacteroides thetaiotaomicron): 0.25 µg/mL (≈ 0.652 µM); MIC90 ([3]; Bacteroides thetaiotaomicron): 0.5 µg/mL (≈ 1.3 µM); MIC50 (Pseudomonas aeruginosa): 2 µg/mL (≈ 5.22 µM); MIC90 (Pseudomonas aeruginosa): 16 µg/mL (≈ 41.7 µM); MIC50 (Haemophilus influenzae): 0.25 µg/mL (≈ 0.652 µM); MIC90 (Haemophilus influenzae): 1 µg/mL (≈ 2.61 µM); MIC Range (Haemophilus influenzae): 0.06 to 1 µg/mL; AUC ([6]; rat, intravenous, 20 mg/kg): 6380 ± 600 ng·h/mL; CL ([6]; rat, intravenous, 20 mg/kg): 54.2 ± 5.3 mL/min/kg; T1/2 ([6]; rat, intravenous, 20 mg/kg): 4.0 ± 0.2 min; MIC [7]: 0.025 µg/mL (≈ 0.0652 µM); MIC (Escherichia coli DC 0): 0.025 µg/mL (≈ 0.0652 µM); MIC (Escherichia coli DC 2; [12]): 0.025 µg/mL (≈ 0.0652 µM); AUC [8, 11]: 11600 ng·h/mL; T1/2 [8]: 33 min
